Patent US20070248705A1, “Agents for Activating the Transcription Factor Nrf2 and Foods Having Such Function” (KIRIN BEER KABUSHIKI KAISHA, priority 2004, published 2007)

Tests used:
[1] = test system: thioredoxin reductase 1 (TXNRD1); experiment: Expression of genes controlled by Nrf2 in RAW264.7: TXNRD1; type: cell-based, mouse; settings: RAW264.7, 25 μM, 20 hours
Description: (§1) A mouse macrophage cell line RAW264.7 was seeded on a φ60 mm dish (9×10^5 cells), 2 ml of a D-MEM medium (Invitrogen) supplemented with 10% fetal bovine serum (HyClone) and penicillin-streptomycin (100 units/ml and 100 μg/ml, respectively; Sigma) was added, and the dish was incubated at 37° C. in an atmosphere of 5% CO2 for 2 days. The medium was replaced with a fresh medium containing individual samples and incubation was continued for another 20 hours. Then, the total RNA was prepared using TRIzol (Invitrogen) and purified using a RNeasy Mini kit (Qiagen) and an RNase-free DNase set (Qiagen). Further, cDNA was synthesized from 5 μg of the purified total RNA using a Thermo Script RT-PCR system (Invitrogen), and the amount of mRNA expression of various genes was determined using a FastStart DNA Master SYBR Green I kit (Roche) and a Light Cycler (Roche).
(§2) The amount of expression of the various genes was corrected by the amount of expression of the housekeeping gene PO and calculated as a relative expression level (n=2, mean±standard deviation). […]

heme oxygenase 1 (HO1) = experiment: Expression of genes controlled by Nrf2 in RAW264.7: HO1; type: cell-based, mouse; settings: RAW264.7, 25 μM, 20 hours
Description: as §1, §2

[2] = test system: glutamate cysteine ligase modifier subunit (GCLM); experiment: Expression of genes controlled by Nrf2 in RAW264.7: GCLM; type: cell-based, mouse; settings: RAW264.7, 25 μM, 20 hours
Description: as §1, §2

[3] = test system: mouse macrophage cell line RAW264.7; experiment: Suppressive action on cell death by hydrogen peroxide; type: cell-based; settings: RAW264.7, 25 μM, 2 hours
Description: A mouse macrophage cell line RAW264.7 (6×10^4 cells/well) was incubated on a 96-well plate in 100 μl of a D-MEM medium (Invitrogen) containing individual samples, 10% fetal bovine serum (HyClone), and penicillin-streptomycin (100 units/ml and 100 μg/ml, respectively; Sigma) at 37° C. in an atmosphere of 5% CO2 overnight. The samples added were isohumulone (IH(F)) and isohumulone (IcH(G)) at a concentration of 25 μM. Hydrogen peroxide (Wako Pure Chemical Industries) was added hereto at a final concentration of 0.8 or 1.0 mM and incubation was continued for another 2 hours. Then, adsorption at 440 nm was measured using a microplate reader (Power Wave 200, Bio-Tek Instruments) with a cell growth reagent WST-1 (Roche Diagnostics). The cell survival rate for each sample was calculated by setting the value without hydrogen peroxide as 100% (n=2, mean±standard variation). As a positive control, 15dPGJ2 (Cayman Chemical) was used.

## CC(C)=CCC(=O)C1(O)C(O)=C(C(=O)CC(C)C)C(=O)C1CC=C(C)C (centres unmarked) [IH (F), isohumulone]
[1]
  expression of TRNRD1: augmented the expression
Heme oxygenase 1 (HO1)
  expression of HO1: augmented the expression
[2]
  expression of GCLM: augmented the expression
[3]; hydrogen peroxide 0.8 mM
  cell death by hydrogen peroxide (cell survival rate): suppressed cell death
[3]; hydrogen peroxide 1.0 mM
  cell death by hydrogen peroxide (cell survival rate): suppressed cell death
